Measurements reported in paper PMC8909127 (Frontiers in Microbiology, 2022).
Entries after “also recorded” stand apart in the source; their conditions may differ. Like-named read-outs stand apart in the source and are kept apart here. No end group written: not given here.

T1: ZO1 PDZ2 (Homo sapiens, UniProt Q07157)
T1 construct: ZO-1-2 (PDZ2; residues 184–264); His tag (N); made in house; host or cells: E. coli BL21 Star (DE3)
T1 sequence (Q07157 184-264): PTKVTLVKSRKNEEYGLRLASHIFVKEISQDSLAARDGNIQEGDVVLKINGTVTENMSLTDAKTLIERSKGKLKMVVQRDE

T2: MPP5 PDZ (Homo sapiens, UniProt Q8N3R9)
T2 construct: MPP5 (residues 238–336); GST (N, cleaved yes); made in house; host or cells: E. coli BL21 Star (DE3)
T2 sequence (Q8N3R9 238-336): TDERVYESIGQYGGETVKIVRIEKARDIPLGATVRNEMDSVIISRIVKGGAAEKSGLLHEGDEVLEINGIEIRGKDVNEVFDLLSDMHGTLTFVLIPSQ

T3: MLLT4 PDZ (Homo sapiens, UniProt P55196)
T3 construct: MLLT4; P55196; 1002-1095; His-MBP (N, cleaved yes); made in house; host or cells: E. coli BL21 Star (DE3)
T3 sequence (P55196 1002-1095): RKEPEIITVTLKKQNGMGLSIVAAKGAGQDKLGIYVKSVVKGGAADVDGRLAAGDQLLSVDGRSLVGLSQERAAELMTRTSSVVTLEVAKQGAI

T4: LNX2 PDZ2 (Homo sapiens, UniProt Q8N448)
T4 construct: LNX2-2 (PDZ2; residues 334–426); His tag (N, cleaved yes); made in house; host or cells: E. coli BL21 Star (DE3)
T4 sequence (Q8N448 334-426): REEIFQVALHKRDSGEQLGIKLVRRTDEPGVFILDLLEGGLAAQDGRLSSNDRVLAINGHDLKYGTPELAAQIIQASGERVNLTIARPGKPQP

T5: ZO-1 PDZ2 (human, UniProt Q07157 184-264)
T5 construct: second PDZ domain of human ZO-1 (TJP1), residues 184-264, numbering of the full-length human protein; […]; Labelled on amines with RED-NHS dye for MST; also called TJP1 PDZ2; ZO-1-2
T5 sequence (looked up): T1 sequence (Q07157 184-264)

T6: MPP5 PDZ (human, UniProt Q8N3R9 238-336)
T6 construct: PDZ domain of human MPP5 (PALS1), residues 238-336, numbering of the full-length human protein; […]; Labelled on amines with RED-NHS dye for MST; also called PALS1 PDZ; not shown: GST, N-terminal, cleaved
T6 sequence (looked up): T2 sequence (Q8N3R9 238-336)

T7: LNX2 PDZ2 (human, UniProt Q8N448 334-426)
T7 construct: second PDZ domain of human LNX2, residues 334-426, numbering of the full-length human protein; […]; Labelled on amines with RED-NHS dye for MST; also called LNX2-2; not shown: His tag, N-terminal, cleaved
T7 sequence (looked up): T4 sequence (Q8N448 334-426)

T8: MLLT4 PDZ (human, UniProt P55196 1002-1095)
T8 construct: PDZ domain of human MLLT4 (Afadin); the residues named in the structure (1014-1022, 1071) fit 1002-1095; also called Afadin PDZ; not shown: His tag, N-terminal, cleaved; MBP, N-terminal, cleaved
T8 sequence (looked up): T3 sequence (P55196 1002-1095)

B1: C-terminal SARS-CoV-2-E PBM P71L peptide of the beta variant (peptide)
peptide: NLNSSRVLDLLV
notes: also called P71L PBM peptide; SARS-CoV-2 P71L

How the values were obtained:
ZO1 PDZ2 = biological target: T1, ZO1 PDZ2; experiment: Microscale thermophoresis, E PBM peptide vs ZO1 PDZ2; assay type: binding
MPP5 PDZ [1] = biological target: T2, MPP5 PDZ; experiment: Microscale thermophoresis, E PBM peptide vs MPP5 PDZ; assay type: binding
PARD3 PDZ3 [2] = biological target: T9, PARD3 PDZ3 (Homo sapiens, UniProt Q8TEW0); experiment: Microscale thermophoresis, E PBM peptide vs PARD3 PDZ3; assay type: binding; details: MST
T9 construct: PARDD3-3 (PDZ3; residues 582–685); His tag (N, cleaved yes); made in house; host or cells: E. coli BL21 Star (DE3)

MLLT4 PDZ [3] = biological target: T3, MLLT4 PDZ; experiment: Microscale thermophoresis, E PBM peptide vs MLLT4 PDZ; assay type: binding; details: MST
LNX2 PDZ2 [4] = biological target: T4, LNX2 PDZ2; experiment: Microscale thermophoresis, E PBM peptide vs LNX2 PDZ2; assay type: binding
ZO-1 PDZ2 = biological target: T5, ZO-1 PDZ2; experiment: MST; […]; PBS tween 20 0.05%; room temperature; […]; duplicate; details: both partners purified
MPP5 PDZ [5] = biological target: T6, MPP5 PDZ; experiment: as above; details: both partners purified
LNX2 PDZ2 [6] = biological target: T7, LNX2 PDZ2; experiment: as above; details: both partners purified
PARD3 PDZ3 [7] = biological target: T10, PARD3 PDZ3 (human, UniProt Q8TEW0 582-685); experiment: as above; details: both partners purified
T10 construct: third PDZ domain of human PARD3, residues 582-685, numbering of the full-length human protein; […]; Labelled on amines with RED-NHS dye for MST; also called PARDD3-3; not shown: His tag, N-terminal, cleaved

MLLT4 PDZ [8] = biological target: T8, MLLT4 PDZ; experiment: as above; details: both partners purified
[9] = Monolith NT.115, PDZ labeled RED-NHS, acetylated 12-mer peptide serially diluted, PBS tween 20 0.05%, room temperature, 80% LED, 20% MST power, MST time 30 s, averaged, ± standard deviation, two independent experiments
[10] = either no interaction, or affinity outside the tested concentration range, read-out: Kd, outside the tested concentration range

T9 sequence (Q8TEW0 582-685): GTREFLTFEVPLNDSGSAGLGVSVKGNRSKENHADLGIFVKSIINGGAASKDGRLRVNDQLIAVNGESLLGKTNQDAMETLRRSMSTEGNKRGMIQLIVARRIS
T10 sequence (Q8TEW0 582-685): as above

Row | Molecule | Effect of P71L on affinity vs WT (ZO1 PDZ2) | Effect of P71L on affinity vs WT (MPP5 PDZ [1]) | Kd (PARD3 PDZ3 [2]; [9]) | Kd (PARD3 PDZ3 [2]; [10]) | Kd (MLLT4 PDZ [3]; [9]) | Kd (MLLT4 PDZ [3]; [10]) | Change of Kd compared with SARS-CoV-2 WT (LNX2 PDZ2 [4]) | Kd (ZO-1 PDZ2) | Kd (MPP5 PDZ [5]) | Kd (LNX2 PDZ2 [6]) | Kd (PARD3 PDZ3 [7]) | Kd (MLLT4 PDZ [8])
1 | Ac-NLNSSRVLDLLV [SARS-CoV-2 P71L] | considerably reduces | does not significantly impact the affinity | not detectable in the tested concentration range; also recorded: No interaction detected | > 1000 µM | not detectable in the tested concentration range; also recorded: No interaction detected | > 1000 µM | almost six times lower |  |  |  |  | 
2 | B1 |  |  |  |  |  |  |  | 133 µM | 22 µM | 47 µM | > 1000 µM | > 1000 µM
